In patent publication EP4725957A1, “GROUP OF CYCLIC ALKALINE LIPOPEPTIDE COMPOUNDS, AND PREPARATION METHOD THEREFOR AND USE THEREOF” (Institute of Medicinal Biotechnology, Chinese Academy of …, priority 2023, dated 2024):
≈ marks a conversion by molar mass, not a printed value. Numbered stars: 1 amine (or outer) side, 2 acyl side, 3 side chain; on linkers, the order of the positions; unused ones are H or OH. Bridge positions count the residues as written; N and C are the ends. Square brackets hold non-standard residues; d marks the D form. Peptide text beside a SMILES is read from it. * marks the point of attachment. Dab(CH2SO3H) = N[C@@H](CCNCS(=O)(=O)O)C(=O)O; X2 = O=C([C@H](CNCS(=O)(=O)O)N[*:1])[*:2]; Heptanoyl(6-Me) = CC(C)CCCCC(=O)*; Nonanoyl = CCCCCCCCC(=O)*; dDab = NCC[C@@H](N)C(=O)O; Heptanoyl = CCCCCCC(=O)*; Octanoyl = CCCCCCCC(=O)*; dDap = NC[C@@H](N)C(=O)O; Dab = NCC[C@H](N)C(=O)O; Dap = NC[C@H](N)C(=O)O

Key:
Format in all cases: cell-based
[1] = system: Pseudomonas aeruginosa PAE19-3; conditions: PAE19-3
How it was run: (§1)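 Colonies from 18-24 h plates were suspended to 0.5 McFarland and diluted in MH broth. Two-fold compound dilutions were then mixed 1:1 with inoculum to reach 64 to 0.03 mg/L and (2-4) × 10^5 CFU/mL. Plates were sealed and incubated at 35-37°C for 16-20 h, after which the MIC was read.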

[2] = system: Pseudomonas aeruginosa ATCC 27853; conditions: ATCC 27853
How it was run: as §1

[3] = system: Escherichia coli ATCC BAA-2340 (KPC); conditions: ATCC BAA-2340
How it was run: as §1

[4] = system: Klebsiella pneumoniae KPN+19-15; conditions: KPN+19-15
How it was run: as §1

[5] = system: Acinetobacter baumannii ABA19-1; conditions: ABA19-1
How it was run: as §1

[6] = system: Klebsiella pneumoniae ATCC BAA-1705 (KPC); conditions: ATCC BAA-1705
How it was run: as §1

[7] = system: Acinetobacter baumannii NCTC 13304 (OXA-27); conditions: NCTC 13304
How it was run: as §1

[8] = system: Escherichia coli ATCC BAA-2523; conditions: ATCC BAA-2523
How it was run: as §1

[9] = Nephrotoxicity assay: in vitro cytotoxicity of HK-2 cells by CCK-8 assay; conditions: human, HK-2 cells (human renal), 72 h incubation with drug-containing medium
How it was run: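 HK-2 human renal cells in RPMI-1640 with 10% FBS were exposed to compounds at final 12.5–500 µg/mL for 72 h, then CCK-8 for 3 h and OD450 read. Viability was normalised to drug-free wells; IC50 came from logarithmic regression over three repeats, with polymyxin B as positive drug.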

Compound	MIC [1] [µg/mL]	MIC [2] [µg/mL]	MIC [3] [µg/mL]	MIC [4] [µg/mL]	MIC [5] [µg/mL]	MIC [6] [µg/mL]	MIC [7] [µg/mL]	MIC [8] [µg/mL]	IC50 at 72 h [9] [µg/mL]
CCCCCCCC(=O)N[C@@H](CCN)C(=O)N[C@H](C(=O)N[C@@H](CN)C(=O)N[C@H]1CCNC(=O)[C@H]([C@@H](C)O)NC(=O)[C@H](CCN)NC(=O)[C@H](CCN)NC(=O)[C@H]([C@@H](C)O)NC(=O)[C@@H](Cc2ccccc2)NC(=O)[C@H](CCN)NC1=O)[C@@H](C)O [Compound 8, Octanoyl-Dab-Thr-Dap-ring(4-10)[Dab-Dab-D-Phe-Thr-Dab-Dab-Thr]] (Octanoyl-[Dab]T[Dap][Dab][Dab][dF]T[Dab][Dab]T; lactam 4-C)	0.25 (≈ 0.215 µM)	0.125 (≈ 0.107 µM)	≤0.03	≤0.03	≤0.03	≤0.03	≤0.03	≤0.03	> 500
CC(C)CCCCC(=O)N[C@@H](CCNCS(=O)(=O)O)C(=O)N[C@H](C(=O)N[C@H](CO)C(=O)N[C@H]1CCNC(=O)[C@H]([C@@H](C)O)NC(=O)[C@H](CCN)NC(=O)[C@H](CCN)NC(=O)[C@H]([C@@H](C)O)NC(=O)[C@@H](Cc2ccccc2)NC(=O)[C@H](CCN)NC1=O)[C@@H](C)O [Compound 108, 6-methylheptanoyl-Dab(CH2SO3H)-Thr-D-Ser-ring(4-10)[Dab-Dab-D-Phe-Thr-Dab-Dab-Thr]] ({Heptanoyl(6-Me)}-[Dab(CH2SO3H)]T[dS][Dab][Dab][dF]T[Dab][Dab]T; lactam 4-C)	0.5 (≈ 0.397 µM)	0.25 (≈ 0.199 µM)	0.06 (≈ 0.0477 µM)	0.125 (≈ 0.0993 µM)	0.25 (≈ 0.199 µM)	0.125 (≈ 0.0993 µM)	0.06 (≈ 0.0477 µM)	0.06 (≈ 0.0477 µM)	> 500
CC(C)CCCCC(=O)N[C@@H](CCN)C(=O)N[C@H](C(=O)N[C@H](CO)C(=O)N[C@H]1CCNC(=O)[C@H]([C@@H](C)O)NC(=O)[C@H](CCN)NC(=O)[C@H](CN)NC(=O)[C@H]([C@@H](C)O)NC(=O)[C@@H](Cc2ccccc2)NC(=O)[C@H](CCN)NC1=O)[C@@H](C)O [Compound 72, 6-methylheptanoyl-Dab-Thr-D-Ser-ring(4-10)[Dab-Dab-D-Phe-Thr-Dap-Dab-Thr]] ({Heptanoyl(6-Me)}-[Dab]T[dS][Dab][Dab][dF]T[Dap][Dab]T; lactam 4-C)	64 (≈ 55.6 µM)	>64	≤0.03	0.5 (≈ 0.435 µM)	0.06 (≈ 0.0522 µM)	0.25 (≈ 0.217 µM)	≤0.03	≤0.03	> 500
CCCCCCC(=O)N[C@@H](CCN)C(=O)N[C@H](C(=O)N[C@H](CN)C(=O)N[C@H]1CCNC(=O)[C@H]([C@@H](C)O)NC(=O)[C@H](CCN)NC(=O)[C@H](CCN)NC(=O)[C@H](CC(C)C)NC(=O)[C@@H](Cc2ccccc2)NC(=O)[C@H](CCN)NC1=O)[C@@H](C)O [Compound 34, Heptanoyl-Dab-Thr-D-Dap-ring(4-10)[Dab-Dab-D-Phe-Leu-Dab-Dab-Thr]] (Heptanoyl-[Dab]T[dDap][Dab][Dab][dF]L[Dab][Dab]T; lactam 4-C)	0.5 (≈ 0.431 µM)	0.06 (≈ 0.0517 µM)	0.06 (≈ 0.0517 µM)	0.06 (≈ 0.0517 µM)	0.06 (≈ 0.0517 µM)	0.06 (≈ 0.0517 µM)	0.06 (≈ 0.0517 µM)	0.06 (≈ 0.0517 µM)	298 ± 3.7 (≈ 256 µM)
CC(C)CCCCC(=O)N[C@@H](CCN)C(=O)N[C@H](C(=O)N[C@@H](CNCS(=O)(=O)O)C(=O)N[C@H]1CCNC(=O)[C@H]([C@@H](C)O)NC(=O)[C@H](CCN)NC(=O)[C@H](CCN)NC(=O)[C@H]([C@@H](C)O)NC(=O)[C@@H](Cc2ccccc2)NC(=O)[C@H](CCN)NC1=O)[C@@H](C)O [Compound 112, 6-methylheptanoyl-Dab-Thr-Dap(CH2SO3H)-ring(4-10)[Dab-Dab-D-Phe-Thr-Dab-Dab-Thr]] ({Heptanoyl(6-Me)}-[Dab]T[X2][Dab][Dab][dF]T[Dab][Dab]T; lactam 4-C)	0.25 (≈ 0.199 µM)	0.25 (≈ 0.199 µM)	0.03 (≈ 0.0239 µM)	0.125 (≈ 0.0994 µM)	0.06 (≈ 0.0477 µM)	0.125 (≈ 0.0994 µM)	0.06 (≈ 0.0477 µM)	0.03 (≈ 0.0239 µM)	> 500
CCCCCCCCC(=O)N[C@@H](CN)C(=O)N[C@H](C(=O)N[C@H](CCN)C(=O)N[C@H]1CCNC(=O)[C@H]([C@@H](C)O)NC(=O)[C@H](CCN)NC(=O)[C@H](CCN)NC(=O)[C@H](CC(C)C)NC(=O)[C@@H](Cc2ccccc2)NC(=O)[C@H](CCN)NC1=O)[C@@H](C)O [Compound 95, Nonanoyl-Dap-Thr-D-Dab-ring(4-10)[Dab-Dab-D-Phe-Leu-Dab-Dab-Thr]] (Nonanoyl-[Dap]T[dDab][Dab][Dab][dF]L[Dab][Dab]T; lactam 4-C)	1 (≈ 0.841 µM)	1 (≈ 0.841 µM)	0.125 (≈ 0.105 µM)	0.06 (≈ 0.0504 µM)	0.06 (≈ 0.0504 µM)	0.06 (≈ 0.0504 µM)	0.06 (≈ 0.0504 µM)	0.125 (≈ 0.105 µM)	113 ± 10.3 (≈ 94.8 µM)
